Experimental data taken from patent US10196364B2, “Pyrimidine carboxamides as sodium channel blockers” (Purdue Pharma L.P., priority 2013, dated 2019).

biological target: human Nav1.7 (Homo sapiens, UniProt Q15858); assay: FLIPR sodium dye assay (CoroNa Green AM Na+ dye, primary fluorescence assay) in recombinant Nav1.7/HEK293 cells; format: cell-based; settings: Table 6; CoroNa Green AM Na+ dye primary fluorescence assay; read-out: Nav1.7 Activity (μM) FLIPR assay IC50
Sequence (Q15858 1-1977 isoform Q15858-3): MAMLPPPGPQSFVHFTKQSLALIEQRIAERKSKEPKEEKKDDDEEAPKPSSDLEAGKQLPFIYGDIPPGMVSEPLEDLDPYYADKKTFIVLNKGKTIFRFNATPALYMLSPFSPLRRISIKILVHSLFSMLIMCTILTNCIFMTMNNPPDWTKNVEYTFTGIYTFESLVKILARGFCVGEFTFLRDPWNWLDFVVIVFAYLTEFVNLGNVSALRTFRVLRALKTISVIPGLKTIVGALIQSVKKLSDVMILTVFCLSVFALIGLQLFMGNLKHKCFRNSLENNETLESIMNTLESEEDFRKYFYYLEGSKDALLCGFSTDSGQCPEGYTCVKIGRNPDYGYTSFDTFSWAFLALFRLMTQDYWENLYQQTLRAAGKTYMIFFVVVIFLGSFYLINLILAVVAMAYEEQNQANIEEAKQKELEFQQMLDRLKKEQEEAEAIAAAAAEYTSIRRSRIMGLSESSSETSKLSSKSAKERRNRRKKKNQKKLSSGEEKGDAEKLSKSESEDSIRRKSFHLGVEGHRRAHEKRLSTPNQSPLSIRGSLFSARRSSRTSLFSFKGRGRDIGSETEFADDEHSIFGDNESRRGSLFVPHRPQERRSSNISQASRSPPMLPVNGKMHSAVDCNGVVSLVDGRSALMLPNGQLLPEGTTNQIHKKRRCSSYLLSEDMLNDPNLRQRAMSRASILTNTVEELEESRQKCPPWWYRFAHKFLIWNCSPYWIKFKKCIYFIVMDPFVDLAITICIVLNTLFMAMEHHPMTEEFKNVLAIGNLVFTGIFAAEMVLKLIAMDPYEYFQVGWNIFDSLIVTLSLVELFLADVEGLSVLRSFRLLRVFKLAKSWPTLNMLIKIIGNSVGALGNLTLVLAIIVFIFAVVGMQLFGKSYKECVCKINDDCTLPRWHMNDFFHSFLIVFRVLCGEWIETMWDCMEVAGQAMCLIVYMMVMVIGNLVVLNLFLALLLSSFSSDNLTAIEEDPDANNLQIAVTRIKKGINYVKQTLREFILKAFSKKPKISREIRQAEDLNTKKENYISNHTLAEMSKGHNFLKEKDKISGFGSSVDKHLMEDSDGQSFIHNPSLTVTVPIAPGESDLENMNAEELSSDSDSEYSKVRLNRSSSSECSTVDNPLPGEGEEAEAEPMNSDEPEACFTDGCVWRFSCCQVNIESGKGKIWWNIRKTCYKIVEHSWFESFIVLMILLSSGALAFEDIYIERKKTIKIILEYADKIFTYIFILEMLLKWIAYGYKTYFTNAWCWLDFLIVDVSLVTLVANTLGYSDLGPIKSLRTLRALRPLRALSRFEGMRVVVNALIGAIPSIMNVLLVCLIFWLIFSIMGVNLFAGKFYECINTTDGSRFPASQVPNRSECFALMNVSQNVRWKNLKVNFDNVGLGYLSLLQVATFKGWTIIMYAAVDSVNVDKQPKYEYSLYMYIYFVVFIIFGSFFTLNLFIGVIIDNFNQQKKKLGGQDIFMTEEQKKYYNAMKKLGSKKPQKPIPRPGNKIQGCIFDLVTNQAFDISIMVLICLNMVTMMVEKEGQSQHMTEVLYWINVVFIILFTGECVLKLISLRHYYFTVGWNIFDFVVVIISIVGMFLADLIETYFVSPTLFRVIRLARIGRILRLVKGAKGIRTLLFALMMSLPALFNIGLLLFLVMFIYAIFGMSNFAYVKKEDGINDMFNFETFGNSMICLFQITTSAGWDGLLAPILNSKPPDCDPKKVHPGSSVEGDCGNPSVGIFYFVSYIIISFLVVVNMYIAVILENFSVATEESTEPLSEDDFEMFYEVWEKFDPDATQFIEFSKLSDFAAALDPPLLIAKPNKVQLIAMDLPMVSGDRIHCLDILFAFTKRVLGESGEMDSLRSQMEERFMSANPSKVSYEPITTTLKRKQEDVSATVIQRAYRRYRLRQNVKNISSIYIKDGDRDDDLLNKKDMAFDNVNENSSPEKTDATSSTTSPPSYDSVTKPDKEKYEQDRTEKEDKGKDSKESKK

IC50 [µM] | SMILES
1.74 | COc1ccc(CNc2cc(C(N)=O)nc(-c3ccc(Oc4ccc(F)cc4)cc3)n2)c(OC)c1 [Cpd No. 178, 6-((2,4-dimethoxybenzyl)amino)-2-(4-(4-fluorophenoxy)phenyl)-pyrimidine-4-carboxamide]
> 20 | NC(=O)c1cc(NCc2ncc[nH]2)nc(-c2ccc(Oc3ccc(F)cc3)cc2)n1 [Cpd No. 179, 6-(((1H-imidazol-2-yl)methyl)amino)-2-(4-(4-fluorophenoxy)phenyl)-pyrimidine-4-carboxamide]
0.14 | Cn1ccnc1CNc1cc(C(N)=O)nc(-c2ccc(Oc3ccc(F)cc3)cc2)n1 [Cpd No. 180, 2-(4-(4-fluorophenoxy)phenyl)-6-(((1-methyl-1H-imidazol-2-yl)methyl)-amino)pyrimidine-4-carboxamide]
9.72 | C[C@H](Oc1cc(C(N)=O)nc(-c2ccc(Oc3ccc(C(F)(F)F)cc3CN3CCCC3)cc2)n1)C(=O)O [Cpd No. 184, (S)-2-((6-carbamoyl-2-(4-(2-(pyrrolidin-1-ylmethyl)-4-(trifluoromethyl)phenoxy)-phenyl)pyrimidin-4-yl)oxy)propanoic acid]
8.69 | NC(=O)c1cc(N[C@H]2CCNC2=O)nc(-c2ccc(CC3CCC(C(F)(F)F)CN3)cc2)n1 (stereo partly drawn) [Cpd No. 185, 6-(((S)-2-oxopyrrolidin-3-yl)amino)-2-(4-((5-(trifluoromethyl)piperidin-2-yl)methyl)phenyl)pyrimidine-4-carboxamide]
5.67 | NC(=O)c1cc(N[C@H]2CCNC2=O)nc(-c2ccc(Oc3ccc(F)cc3)cc2CN2CCOCC2)n1 [Cpd No. 187, (S)-2-(4-(4-fluorophenoxy)-2-(morpholinomethyl)phenyl)-6-((2-oxopyrrolidin-3-yl)amino)-pyrimidine-4-carboxamide]
> 20 | NC(=O)c1cc(N[C@H]2CCNC2=O)nc(-c2ccc(C(O)c3ccc(C(F)(F)F)cn3)cc2)n1 (some centres unmarked) [Cpd No. 189]
1.34 | NC(=O)c1cc(N[C@H]2CCNC2=O)nc(-c2ccc(Oc3ccc(C(F)(F)F)cc3CN3CCOCC3)cc2)n1 [Cpd No. 192, (S)-2-(4-(2-(morpholinomethyl)-4-(trifluoromethyl)phenoxy)-phenyl)-6-((2-oxopyrrolidin-3-yl)amino)pyrimidine-4-carboxamide]
> 20 | CN1CCN(Cc2cc(C(F)(F)F)ccc2Oc2ccc(-c3nc(N[C@H]4CCNC4=O)cc(C(N)=O)n3)cc2)CC1 [Cpd No. 193]
2.18 | NC(=O)c1cc(N[C@H]2CCNC2=O)nc(-c2ccc(Oc3ccc(C(F)(F)F)cc3CN3CCCCC3)cc2)n1 [Cpd No. 194, (S)-6-((2-oxopyrrolidin-3-yl)amino)-2-(4-(2-(piperidin-1-ylmethyl)-4-(trifluoromethyl)-phenoxy)phenyl)pyrimidine-4-carboxamide]
> 20 | C[C@H](Nc1cc(C(N)=O)nc(-c2ccc(Oc3cnc(C4CC4)cn3)cc2)n1)C(N)=O [Cpd No. 195, (S)-6-((1-amino-1-oxopropan-2-yl)amino)-2-(4-((5-cyclopropyl-pyrazin-2-yl)oxy)phenyl)-pyrimidine-4-carboxamide]
> 20 | Cc1cnc(Oc2ccc(-c3nc(N[C@@H](C)C(N)=O)cc(C(N)=O)n3)cc2)cn1 [Cpd No. 196, (S)-6-((1-amino-1-oxopropan-2-yl)amino)-2-(4-((5-methyl-pyrazin-2-yl)oxy)phenyl)-pyrimidine-4-carboxamide]
5.07 | COc1cnc(Oc2ccc(-c3nc(N[C@H]4CCNC4=O)cc(C(N)=O)n3)cc2)cn1 [Cpd No. 197, (S)-2-(4-((5-methoxypyrazin-2-yl)oxy)phenyl)-6-((2-oxopyrrolidin-3-yl)amino)-pyrimidine-4-carboxamide]
> 20 | COc1cnc(Oc2ccc(-c3nc(N[C@@H](C)C(N)=O)cc(C(N)=O)n3)cc2)cn1 [Cpd No. 198, (S)-6-((1-amino-1-oxopropan-2-yl)amino)-2-(4-((5-methoxy-pyrazin-2-yl)oxy)phenyl)-pyrimidine-4-carboxamide]
4.67 | Cc1cnc(Oc2ccc(-c3nc(N[C@H]4CCNC4=O)cc(C(N)=O)n3)cc2)cn1 [Cpd No. 199, (S)-2-(4-((5-methylpyrazin-2-yl)oxy)phenyl)-6-((2-oxopyrrolidin-3-yl)amino)pyrimidine-4-carboxamide]
0.28 | NC(=O)c1cc(N[C@H]2CCNC2=O)nc(-c2ccc(Oc3ccc(C(F)(F)F)cc3)cc2CN2CCOCC2)n1 [Cpd No. 200, (S)-2-(2-(morpholinomethyl)-4-(4-(trifluoromethyl)phenoxy)-phenyl)-6-((2-oxopyrrolidin-3-yl)amino)pyrimidine-4-carboxamide]
> 20 | CN(C)Cc1cc(Oc2ccc(C(F)(F)F)cc2)ccc1-c1nc(N[C@H]2CCNC2=O)cc(C(N)=O)n1 [Cpd No. 201, (S)-2-(2-((dimethylamino)-methyl)-4-(4-(trifluoromethyl)-phenoxy)phenyl)-6-((2-oxopyrrolidin-3-yl)-amino)pyrimidine-4-carboxamide]
0.72 | NC(=O)c1cc(N[C@H]2CCNC2=O)nc(-c2ccc(Oc3ccc(C(F)(F)F)cc3)cc2CN2CCCCC2)n1 [Cpd No. 202, (S)-6-((2-oxopyrrolidin-3-yl)amino)-2-(2-(piperidin-1-ylmethyl)-4-(4-(trifluoromethyl)-phenoxy)phenyl)pyrimidine-4-carboxamide]
0.76 | CN1CCN(Cc2cc(Oc3ccc(C(F)(F)F)cc3)ccc2-c2nc(N[C@H]3CCNC3=O)cc(C(N)=O)n2)CC1 [Cpd No. 203, (S)-2-(2-((4-methylpiperazin-1-yl)methyl)-4-(4-(trifluoro-methyl)phenoxy)-phenyl)-6-((2-oxopyrrolidin-3-yl)amino)-pyrimidine-4-carboxamide]

SMILES | IC50 [µM]
NC(=O)c1cc(N[C@H]2CCNC2=O)nc(N2[C@@H]3CC[C@H]2C[C@H](Oc2ccc(F)cc2Cl)C3)n1 [Cpd No. 182, 2-((1R,3R,5S)-3-(2-chloro-4-fluorophenoxy)-8-azabicyclo[3.2.1]octan-8-yl)-6-(((S)-2-oxopyrrolidin-3-yl)amino)pyrimidine-4-carboxamide] | 0.35
CC1CN1Cc1cc(Oc2ccc(F)cc2)ccc1-c1nc(N[C@H]2CCNC2=O)cc(C(N)=O)n1 (stereo partly drawn) [Cpd No. 188, 2-(4-(4-fluorophenoxy)-2-((2-methylaziridin-1-yl)methyl)-phenyl)-6-(((S)-2-oxopyrrolidin-3-yl)amino)pyrimidine-4-carboxamide] | 4.64
NC(=O)c1cc(N[C@H]2CCNC2=O)nc(N2[C@@H]3CC[C@H]2C[C@@H](Oc2ccc(C(F)(F)F)cc2CN2CCCC2)C3)n1 [Cpd No. 191, 6-(((S)-2-oxopyrrolidin-3-yl)amino)-2-((1R,3S,5S)-3-(2-(pyrrolidin-1-ylmethyl)-4-(trifluoromethyl)phenoxy)-8-azabicyclo[3.2.1]octan-8-yl)pyrimidine-4-carboxamide] | 1.97
N#Cc1cc(C(F)(F)F)ccc1O[C@H]1C[C@H]2CC[C@@H](C1)N2c1nc(N[C@H]2CCNC2=O)cc(C(N)=O)n1 [Cpd No. 204, 2-((1R,3S,5S)-3-(2-cyano-4-(trifluoromethyl)phenoxy)-8-azabicyclo-[3.2.1]octan-8-yl)-6-(((S)-2-oxopyrrolidin-3-yl)amino)pyrimidine-4-carboxamide] | > 20
